Legend:
[1] = tested on: Gal-8-induced LEC sprouting; assay: LEC sprouting assay: Gal-8-induced sprouting with inhibitors or knockdown; assay type: cell-based, human; conditions: Gal-8 0.75 μM, 24 h; TDG 20 mM; LY294002 20 μM; U0126 20 μM; PD0325901 1 μM; Avastin 10 μg/ml; Obtustatin 4 μM; antibodies 20 μg/ml; siRNA-transfected LECs
Description: LEC spheroids were generated by seeding primary LECs at passage 4 or 5 in each well of 384-well hanging-drop plates (3D Biomatrix) in complete EGM-2 MV medium containing 0.25% methyl cellulose according to the manufacturer's instructions (750 cells/well). After 18 hours, LEC spheroids were collected, resuspended in serum-free EBM-2 basal medium, and mixed with collagen solution (PureCol collagen, Advanced BioMatrix, 2.2 mg/ml in M199 medium, pH adjusted to 7.4 with NaHCO3 and NaOH). Aliquots of the LEC spheroid/collagen mixture (250 μl/well of 48-well plate) were incubated in the presence or absence of various test agents for 24 hr. At the end of the incubation period, spheroids were stained with Calcein AM (Invitrogen, 1 μg/mL, 37° C., and 30 min). Fluorescent images were acquired using the EVOS FL cell imaging system, pixels were inverted for better visualization and cumulative length of each sprout was calculated. Results were expressed as fold change compared to corresponding controls. […] Test agents used included thiodigalactoside (10 to 50 mM, Carbosynth), 3′-sialyl lactose (2 to 10 mM, Carbosynth), 6′-sialyl lactose (2 to 10 mM, Carbosynth), LY294002 (20 μM, Abeam), U0126 (20 μM, Abeam), PD0325901 (1 μM, Selleckchem), human VEGFR-3-Fc chimera (10 μg/ml, R&D), human VEGFR-2-Fc chimera (10 μg/ml, R&D), Avastin (10 μg/ml, bevacizumab, Genentech/Roche), human control IgG (10 μg/ml, Southern Biotech), anti-human podoplanin functional grade antibody (10 μg/ml, eBioscience), and rat IgG2a κ isotype control functional grade antibody (10 μg/ml, eBioscience).
To determine the role of these pathways on Gal-8-induced lymphangiogenesis, LEC spheroids were stimulated with Gal-8 (0.75 μM) in the presence or absence of PI3K inhibitor (LY294002, 20 μM) and two different MEK inhibitors (U0126, 20 μM; PD0325901, 1 μM). After overnight treatment with Gal-8, accumulated sprout lengths were quantified.

[2] = tested on: VEGF-C-induced LEC sprouting; assay: LEC sprouting assay: VEGF-C-induced sprouting; assay type: cell-based, human
Description: LEC spheroids were generated by seeding primary LECs at passage 4 or 5 in each well of 384-well hanging-drop plates (3D Biomatrix) in complete EGM-2 MV medium containing 0.25% methyl cellulose according to the manufacturer's instructions (750 cells/well). After 18 hours, LEC spheroids were collected, resuspended in serum-free EBM-2 basal medium, and mixed with collagen solution (PureCol collagen, Advanced BioMatrix, 2.2 mg/ml in M199 medium, pH adjusted to 7.4 with NaHCO3 and NaOH). Aliquots of the LEC spheroid/collagen mixture (250 μl/well of 48-well plate) were incubated in the presence or absence of various test agents for 24 hr. At the end of the incubation period, spheroids were stained with Calcein AM (Invitrogen, 1 μg/mL, 37° C., and 30 min). Fluorescent images were acquired using the EVOS FL cell imaging system, pixels were inverted for better visualization and cumulative length of each sprout was calculated. Results were expressed as fold change compared to corresponding controls. It was observed that sprout lengths vary from passages to passages. Test agents used included thiodigalactoside (10 to 50 mM, Carbosynth), 3′-sialyl lactose (2 to 10 mM, Carbosynth), 6′-sialyl lactose (2 to 10 mM, Carbosynth), LY294002 (20 μM, Abeam), U0126 (20 μM, Abeam), PD0325901 (1 μM, Selleckchem), human VEGFR-3-Fc chimera (10 μg/ml, R&D), human VEGFR-2-Fc chimera (10 μg/ml, R&D), Avastin (10 μg/ml, bevacizumab, Genentech/Roche), human control IgG (10 μg/ml, Southern Biotech), anti-human podoplanin functional grade antibody (10 μg/ml, eBioscience), and rat IgG2a κ isotype control functional grade antibody (10 μg/ml, eBioscience).
In this assay, the LEC spheroids were treated with VEGF-C (50 ng/ml) in the presence or absence of 0.75 μM of Gal-8 for 24 hours, and then accumulated sprout lengths were quantified. […] Synergistic effect of Gal-8 on VEGF-C-induced LEC sprouting was dose-dependent. […] At concentrations >0.5 μM Gal-8, there was no further increase in the degree of VEGF-C-induced lymphangiogenesis (FIG. 4C).
To further characterize the role of carbohydrate-mediated recognition in VEGF-C-induced lymphangiogenesis, LEC spheroids were stimulated with VEGF-C (50 ng/ml) in the presence or absence of three different galectin inhibitors. […] Therefore, the data establishes the critical role of Gal-8-mediated carbohydrate-mediated recognition in VEGF-C-induced lymphangiogenesis.

mouse corneas = assay: Mouse model of suture-induced inflammatory corneal lymphangiogenesis; assay type: in vivo; conditions: subconjunctival injections days 0, 2, 4, 6; TDG 200 mM; Gal-8N 15 μg; Prox1-EGFP mice
Text: The mouse model of suture-induced lymphangiogenesis was used as described in Cho, Y. K., et al. 2012. Invest Ophthalmol Vis Sci 53:685-692 and Cursiefen, C., et al. 2004. Invest Ophthalmol Vis Sci 45:1117-1124. Two 11-0 sutures were placed intrastromally about 2 mm from the limbus at the 12 and 6 o'clock positions in the Prox1-EGFP reporter mice. After surgery, a veterinary ophthalmic ointment was applied to prevent infection. Sutures were left in place for 7 days. To assess the effect of galectin inhibitors on suture-induced lymphangiogenesis, 10 μL of vehicle (PBS), TDG (200 mM in PBS), or Gal-8N (15 μg in PBS) were subconjunctivally injected on post-surgery days 0, 2, 4 and 6 using a 32 gauge needle with a 10 μL syringe (Hamilton). On day 7 post-surgery, mouse corneas were harvested and processed for staining with anti-LYVE-1 as described in examples herein. The areas of lymphatic vessels covering the whole corneas were calculated.
There is much interest in finding ways to inhibit prolymphangiogenic factors as means of suppressing cancer metastasis, transplant rejection and chronic inflammation. To determine whether galectins can be targeted to control lymphangiogenesis, a well-established in vivo model of lymphangiogenesis was used. […] At the end of the treatment period, lymphatic vessel areas were quantified.

OC[C@H]1O[C@@H](S[C@@H]2O[C@H](CO)[C@H](O)[C@H](O)[C@H]2O)[C@H](O)[C@@H](O)[C@H]1O [TDG, thiodigalactoside, reference compound]
effect on Gal-8-induced LEC sprouting (in words) [1]: almost completely inhibited
effect on VEGF-C-induced LEC sprouting (in words) ([2]; VEGF-C 50 ng/ml, 24 h): inhibited
effect on the synergistic effect of Gal-8 on VEGF-C-induced sprouting ([2]; VEGF-C plus Gal-8): almost completely inhibited
effect on suture-induced corneal lymphangiogenesis (mouse corneas): significantly suppressed

— patent US10226509B2, “Lymphangiogenesis inhibitors for cancer and for graft survival” (TUFTS UNIVERSITY, priority 2014, dated 2019)
